The text below walks through data of PubChem BioAssay (NCI).

Among the test systems are HCC-2998 colon; MDA-MB-231 breast; 786-0 renal; HCT-15 colon; A549 NSCLC; M14 melanoma; NCI-H522 lung; SNB-75 CNS; COLO 205 colon; A498 renal.
What all share (experiment): NCI anticancer screen, dose series, 48 h

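Test compounds were applied to cells in 96-well plates for 48 hours at 5 doses. Abbreviation: GI50, concentration required for 50% inhibition of growth. TGI denotes the concentration required for complete inhibition of growth.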 Some results are limits rather than exact numbers.

As for `COC(=O)[C@@]1(O)C[C@H]2O[C@]1(C)n1c3ccccc3c3c4c(c5c6ccccc6n2c5c31)C(=O)NC4`, the GI50 in the assay on HCC-2998 colon was 609 nM; with MDA-MB-231 breast it was 429 nM; in the assay with 786-0 renal, 312 nM; in the assay on HCT-15 colon it was 70.6 nM; in the assay with A549 NSCLC, 240 nM; in the assay with M14 melanoma it was 35.5 nM. The GI50 in the assay with NCI-H522 lung is 61.6 nM; with SNB-75 CNS, 185 nM; with COLO 205 colon it was 231 nM; in the assay with A498 renal, 71.2 nM. The TGI was determined as 2800 nM in the assay with HCC-2998 colon; 2880 nM with MDA-MB-231 breast; 1670 nM in the assay with 786-0 renal; 2500 nM in the assay with HCT-15 colon; 2850 nM with A549 NSCLC; 1150 nM in the assay with M14 melanoma. Besides, the TGI in the assay on NCI-H522 lung was 1710 nM; in the assay with SNB-75 CNS, 1040 nM; in the assay with COLO 205 colon, 692 nM; with A498 renal, 585 nM.
On to `CCOC1C=CCCO1` (stereo not given), for which the TGI in the assay on HCC-2998 colon is 9110 nM; in the assay with MDA-MB-231 breast, above 100000 nM; in the assay on 786-0 renal it was above 100000 nM; in the assay on HCT-15 colon, above 100000 nM; in the assay with A549 NSCLC, above 100000 nM; in the assay with M14 melanoma it was above 100000 nM. In addition, the TGI in the assay on NCI-H522 lung, with SNB-75 CNS, in the assay on COLO 205 colon and with A498 renal was above 100000 nM throughout.
For the molecule `C/C=C/C=C\C1OC(O)([C@H](CC)C(=O)NC/C=C/C=C(\C)[C@H](OC)C(C)C2OC(\C=C/C=C/C=C(\C)C(=O)c3c(O)ccn(C)c3=O)[C@H](O)[C@@H]2O)C(O)C(O)C1(C)C` (stereo not given in full), the TGI in the assay with HCC-2998 colon, with MDA-MB-231 breast, in the assay on 786-0 renal, with HCT-15 colon, with A549 NSCLC and with M14 melanoma was above 100000 nM in each case. Further, the TGI in the assay with NCI-H522 lung, with SNB-75 CNS, with COLO 205 colon and in the assay on A498 renal was above 100000 nM in each case.
For the molecule `O=C1/C(=C/c2ccc(Cl)cc2)COc2ccc(O)c(O)c21`, the GI50 was 1510 nM in the assay with HCC-2998 colon; 1110 nM with MDA-MB-231 breast; 1420 nM in the assay on 786-0 renal; 356 nM with HCT-15 colon; 1790 nM in the assay on A549 NSCLC; 1920 nM in the assay on M14 melanoma. Also, the GI50 was 182 nM in the assay on NCI-H522 lung, 1340 nM in the assay on SNB-75 CNS, 1790 nM in the assay with COLO 205 colon and 2950 nM in the assay with A498 renal. Moreover, the TGI came to 2960 nM in the assay on HCC-2998 colon; 3250 nM with MDA-MB-231 breast; 5170 nM in the assay on 786-0 renal; 4180 nM in the assay on HCT-15 colon; 4770 nM in the assay on A549 NSCLC; 4770 nM with M14 melanoma. The TGI in the assay on NCI-H522 lung is 426 nM; in the assay on SNB-75 CNS, 3650 nM; with COLO 205 colon, 3310 nM; in the assay with A498 renal, 9190 nM.
Consider `COc1cccc2c(=O)c3c(sc12)c(NCCN(C)C)nc1ccccc13`, for which the GI50 in the assay with HCC-2998 colon was 1470 nM; in the assay with MDA-MB-231 breast it was 1340 nM; with 786-0 renal, 1650 nM; with HCT-15 colon, 1060 nM; in the assay on A549 NSCLC it was 1220 nM; with M14 melanoma, 1560 nM. Also, the GI50 in the assay on NCI-H522 lung is 1360 nM; in the assay with SNB-75 CNS, 1470 nM; in the assay on COLO 205 colon it was 1200 nM; in the assay on A498 renal it was 1490 nM. Besides, the TGI with HCC-2998 colon came to 3020 nM; in the assay with MDA-MB-231 breast, 2870 nM; in the assay with 786-0 renal, 3160 nM; in the assay with HCT-15 colon, 2410 nM; with A549 NSCLC, 2800 nM; in the assay on M14 melanoma it was 2940 nM. Also, the TGI in the assay with NCI-H522 lung came to 3020 nM; with SNB-75 CNS it was 8530 nM; with COLO 205 colon it was 2860 nM; in the assay on A498 renal, 2930 nM.
For `COc1ccc2nc(C)cc(Nc3ccccc3O)c2c1`, the GI50 was 17600 nM with HCC-2998 colon; 27900 nM with MDA-MB-231 breast; 18100 nM in the assay with 786-0 renal; 32400 nM in the assay with HCT-15 colon; 38000 nM in the assay with A549 NSCLC; 17600 nM with M14 melanoma. Also, the GI50 in the assay with NCI-H522 lung is 45200 nM; in the assay on SNB-75 CNS, 69900 nM; with COLO 205 colon it was 18300 nM; with A498 renal it was 8070 nM. The TGI was 34300 nM with HCC-2998 colon; above 100000 nM with MDA-MB-231 breast; 42100 nM in the assay on 786-0 renal; above 100000 nM with HCT-15 colon; above 100000 nM in the assay on A549 NSCLC; 45800 nM in the assay with M14 melanoma. Also, the TGI is above 100000 nM in the assay on NCI-H522 lung, above 100000 nM in the assay with SNB-75 CNS, 36500 nM with COLO 205 colon and 45200 nM in the assay with A498 renal.
